From ChEMBL document CHEMBL1201862, “PubChem BioAssay data set” (2004) come the findings set out here.

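Cells were grown in 96-well plates and exposed to each compound for 48 hours at five concentrations; endpoints were interpolated linearly between bracketing concentrations, or set to the highest concentration if not reached. At the GI50, growth is halved.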 Active and inactive are the calls of the source. Rule as the data show it: active = GI50 up to about 1.1 µM and inactive = higher.

Experiment in all cases: NCI anticancer screen, dose series, 48 h
Test [1] relates to HCT-15.
Test [2] relates to RPMI-8226.
The test system of test [3] is CAKI-1.
Test [4] deals with LOX IMVI.
Test [5] relates to ACHN.
For test [6], the system named is UACC-62.
The subject of test [7] is OVCAR-8.
For test [8], the system named is HT-29.
For test [9], the system named is SF-268.
The test system of test [10] is SK-OV-3.
In test [11] the test system is KM-20L2.
Test [12] relates to OVCAR-4.
Test [13] concerns M14.
Test [14] relates to SW-620.
Test [15] has as its system KM12.
Test [16] has as its system HCC 2998.
Test [17] deals with SK-MEL-5.
For test [18], the system named is EKVX.
Test [19] has as its system NCI-H522.

For the molecule `COc1cccc(NC(=O)C(=O)C(C(C)=O)c2nc3ccc(Cl)cc3nc2O)c1` (stereo not given), the GI50 is over 100 µM in test [1]; > 100 µM (inactive) in test [2]; > 100 µM (inactive) in test [3]; > 100 µM (inactive) in test [4]; > 100 µM (inactive) in test [5]; > 100 µM (inactive) in test [6]. Besides, the GI50 in test [7], in [8], in test [9], in test [10], in test [11] and in [12] was > 100 µM (inactive) each time. Further, the GI50 in test [13], in test [14], in test [15], in test [16], in [17] and in test [18] was > 100 µM (inactive) throughout.
`CCN(CC)C(=O)COc1ccc(Br)cc1Br`: the GI50 in test [1] was over 100 µM; in test [2], > 100 µM (inactive); in [3], > 100 µM (inactive); in test [4] it was > 100 µM (inactive); in test [19] it was 50.1 µM (inactive); in test [5], > 100 µM (inactive). Moreover, the GI50 in test [6] is 38.8 µM (inactive); in test [8], > 100 µM (inactive); in test [9] it was > 100 µM (inactive); in test [10], > 100 µM (inactive); in [11], > 100 µM (inactive); in test [12] it was > 100 µM (inactive). The GI50 in test [13] is > 100 µM (inactive); in [14], > 100 µM (inactive); in test [15] it was > 100 µM (inactive); in [16] it was > 100 µM (inactive); in [17], > 100 µM (inactive); in test [18], 7.91 µM (inactive).
With `CC(C)(c1ccc(C=O)o1)c1ccc(C(C)(C)c2ccc(C=O)o2)o1`, the GI50 in [3], in [4], in test [19], in test [5], in test [7] and in test [8] was > 100 µM (inactive) in each case. The GI50 in test [9], in test [10], in [11], in test [12], in [14] and in [15] was > 100 µM (inactive) throughout. Moreover, the GI50 in test [16] and in test [18] was > 100 µM (inactive) throughout.
Regarding `N#CC(C#N)C(c1ccccc1)c1ccccc1`, the GI50 in [1] was over 100 µM; in [2], > 100 µM (inactive); in test [3] it was > 100 µM (inactive); in test [4], > 100 µM (inactive); in test [19], > 100 µM (inactive); in test [5], > 100 µM (inactive). In addition, the GI50 in [6], in test [7], in test [9], in test [10], in [11] and in test [12] was > 100 µM (inactive) in each case. The GI50 in test [13], in test [14], in test [15], in [16] and in [17] was > 100 µM (inactive) throughout.
Regarding `N#CCc1ccc(C(C#N)/C(CCCC(=O)Nc2cccc([N+](=O)[O-])c2)=N/NC(N)=S)cc1` (stereo not given), the GI50 is over 100 µM in test [1]; > 100 µM (inactive) in test [2]; > 100 µM (inactive) in test [3]; 63.1 µM (inactive) in test [4]; 27.9 µM (inactive) in [19]; > 100 µM (inactive) in test [5]. The GI50 is 44.1 µM (inactive) in test [6]; > 100 µM (inactive) in test [8]; > 100 µM (inactive) in [9]; > 100 µM (inactive) in [10]; > 100 µM (inactive) in [11]; > 100 µM (inactive) in test [12]. Moreover, the GI50 in [13] is > 100 µM (inactive); in test [14], > 100 µM (inactive); in test [15] it was > 100 µM (inactive); in [16] it was > 100 µM (inactive); in test [17] it was > 100 µM (inactive); in test [18], 36.6 µM (inactive).
